Results as given in patent US20220281866A1, “5,8-DISUBSTITUTED-[1,2,4]TRIAZOLO[1,5-A]PYRIDINYL AND 5,8-DISUBSTITUTED-IMIDAZO[1,2-A]PYRIDINE DERIVATIVES USEFUL AS INHIBITORS OF ENTEROPEPTIDASE” (Janssen Pharmaceutica NV, priority 2019, published 2022).

What was measured:
[1] = biological target: T1, Recombinant full-length human EP (Enteropeptidase) (Homo sapiens, UniProt P98073); experiment: In vitro inhibition potencies against Enteropeptidase (EP), fluorescent peptide GDDDDK-naphthylamine substrate; type: biochemical; conditions: 300 μM substrate, 1.25 nM EP; for inhibition at 0.1 µM: compound 0.1 μM; for inhibition at 1 µM: compound 1 μM; for inhibition at 10 µM: compound 10 μM; for kinact/KI: 12-point dose-dependence, time-dependent inhibition, duplicate dilutions, read-out: kinact/KI^App
T1 construct: Recombinant full-length human EP (PeproTech, Cat #450-48C); purchased PeproTech 450-48C
Procedure: In vitro inhibition potencies against Enteropeptidase (EP) Recombinant full-length human EP (PeproTech, Cat #450-48C) was used in this biochemical assay, with a quenched fluorescent labeled peptide GDDDDK-naphthylamine (NA) (Sigma, Cat #G5261) as the substrate in a buffer of 50 mM Tris-HCl pH 7.4, 200 mM NaCl and 0.01% Triton X-100. The enzyme activity was measured by following the formation of the cleavage product […](NA) by monitoring the fluorescence intensity (FI) at excitation/emission wavelengths of 340/410 nm. The steady-state kinetic characterization studies yielded an average of KM to be 412±22 μM and the apparent turnover number kcat^app of 11.8±0.4 s^−1 (N=2).
Compound inhibition studies were carried out under the conditions of 300 μM substrate and 1.25 nM EP. Reaction progress curves were collected by reading the FI at 340/410 nm continuously for 1 hour at an interval of 1 minute.
To screen compounds of formula (I), inhibition was studied at 4 different compound concentrations of 10 μM, 1 μM, 0.1 μM and 0.01 μM. Initial velocity of the reaction was determined, and percent of inhibition was calculated by comparing to the reaction in the absence of compound.
Accurate measurements of the inhibition potencies of selected compounds were studied in a 12-point dose-dependence fashion. […] Compound potency was measured by determining the inactivation rate constant (kobs) following the reaction change from the initial velocity vi to the steady-state velocity vs at various compound concentrations. The inactivation rate constants (kobs), were derived by fitting the reaction progress curves to eq. 1.
where YT is the detection signal of the reaction at time t, vi and vs are the initial and the steady-state velocities of the reaction, t is the reaction time. Y0 is the background signal (when t=0).
Compound binding mechanism was shown by plotting kobs˜[compound]. Hyperbolic fitting to eq. 2
conforms to a two-step binding mechanism as shown in Scheme BIO-1.
The plateau of the curve is the forward step rate constant of the isomerization step k3, KI^app is the inhibitor concentration that leads to half-maximal rate of inhibition of enzyme under the assay conditions. Compound inhibition potency was reported by the value of k3/KI^app.
A linear dependence of eq.3
indicates a one-step binding mechanism as shown in Scheme BIO-2
Slope of the linear fit gives the second-order rate constant of the compound binding k1, which is used to represent the compound inhibition potency.
(§1) Representative compounds of the present invention were tested according to the procedures as described in Biological Example 1 and Biological Example 2 above, with results as listed in Table 2 and Table 3, below. Results are reported as the %-inhibition (% Inh) or Kinact/KI value. Variability for the functional assay was typically within 20%. For the column headed Kinact/KI the listed measurement is the result of duplicate dilutions.

Bovine trypsin = biological target: T2, Bovine trypsin (Bos taurus, UniProt P00760); experiment: Biochemical Assay of Trypsin (T), H-D-CHA-AR-AMC substrate; conditions: 15 μM substrate, 0.025 nM Trypsin; for inhibition at 0.1 µM: compound 0.1 μM; for inhibition at 1 µM: compound 1 μM; for inhibition at 10 µM: compound 10 μM; for kinact/KI: 12-point dose-dependence, time-dependent inhibition, duplicate dilutions, read-out: Kinact/KI^App
T2 construct: purchased Sigma-Aldrich T1426
T2 sequence (P00760 24-246): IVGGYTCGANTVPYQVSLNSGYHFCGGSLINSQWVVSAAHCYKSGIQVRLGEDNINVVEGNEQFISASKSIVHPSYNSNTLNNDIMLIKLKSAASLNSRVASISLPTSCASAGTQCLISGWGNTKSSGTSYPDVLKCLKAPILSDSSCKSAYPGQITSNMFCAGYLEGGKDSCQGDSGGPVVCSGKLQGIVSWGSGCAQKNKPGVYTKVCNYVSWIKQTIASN
Procedure: Bovine trypsin was purchased from Sigma-Aldrich (Cat No. T1426), and 7-amino-4-methylcoumarin (AMC) conjugated peptide H-D-cyclohexylalanine (D-CHA)-AR-AMC was used as the substrate in the assay. The protease activity of trypsin was followed by measuring AMC production by the emission fluorescence intensity of AMC at 460 nm with the excitation at 375 nm, in the same assay buffer as used in the EP assay. The enzyme kinetic characterization studies yielded an average of KM to be 3.9±0.5 μM and the apparent turnover number kcat^app of 33.8±0.4 s^−1 (N=2).
Studies of compound inhibition against T were carried out under the conditions of 15 μM substrate and 0.025 nM Trypsin. Reaction progress curves were collected by reading the FI at 375/460 nm continuously for 1 hour at an interval of 1 minute. Similar to the procedure for Enteropeptidase described above, compounds of formula (I) were screened against Trypsin at 4 different concentrations to obtain the percent of inhibition at 10 μM, 1 μM, 0.1 μM and 0.01 μM, and accurate potencies of selected compounds against Trypsin were derived from detailed 12-point dose-dependence studies for time-dependent inhibitors.
as §1

T1 sequence (P98073 whole entry): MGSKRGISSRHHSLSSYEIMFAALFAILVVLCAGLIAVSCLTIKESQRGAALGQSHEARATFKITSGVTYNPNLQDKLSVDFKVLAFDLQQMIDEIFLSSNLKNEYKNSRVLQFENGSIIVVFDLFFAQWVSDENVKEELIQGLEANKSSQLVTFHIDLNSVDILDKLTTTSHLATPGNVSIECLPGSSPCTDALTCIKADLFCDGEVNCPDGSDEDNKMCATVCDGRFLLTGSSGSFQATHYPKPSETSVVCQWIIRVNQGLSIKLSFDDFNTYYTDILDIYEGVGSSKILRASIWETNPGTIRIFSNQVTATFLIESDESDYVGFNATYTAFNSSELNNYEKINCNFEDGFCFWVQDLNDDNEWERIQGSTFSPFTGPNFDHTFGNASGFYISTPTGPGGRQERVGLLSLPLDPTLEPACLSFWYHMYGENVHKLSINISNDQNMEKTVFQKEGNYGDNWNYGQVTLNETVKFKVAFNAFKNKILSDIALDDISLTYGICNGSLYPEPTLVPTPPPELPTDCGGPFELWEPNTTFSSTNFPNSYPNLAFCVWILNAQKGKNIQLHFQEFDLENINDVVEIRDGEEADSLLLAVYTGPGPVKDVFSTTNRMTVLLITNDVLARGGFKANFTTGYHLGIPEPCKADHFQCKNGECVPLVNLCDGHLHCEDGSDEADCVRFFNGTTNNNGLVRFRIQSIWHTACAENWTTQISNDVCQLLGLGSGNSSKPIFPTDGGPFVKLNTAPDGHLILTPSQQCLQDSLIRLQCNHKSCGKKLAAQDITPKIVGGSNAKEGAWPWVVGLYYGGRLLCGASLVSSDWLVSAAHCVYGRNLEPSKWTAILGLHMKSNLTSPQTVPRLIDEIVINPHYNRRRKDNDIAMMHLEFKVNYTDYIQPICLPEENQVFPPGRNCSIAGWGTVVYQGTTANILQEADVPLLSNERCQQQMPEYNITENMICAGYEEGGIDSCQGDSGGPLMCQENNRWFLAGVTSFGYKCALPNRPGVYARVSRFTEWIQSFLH

| SMILES | inhibition at 0.1 µM [1] [%] | inhibition at 1 µM [1] [%] | inhibition at 10 µM [1] [%] | inhibition at 0.1 µM (Bovine trypsin) [%] | inhibition at 1 µM (Bovine trypsin) [%] | inhibition at 10 µM (Bovine trypsin) [%] | kinact/KI [1] [M⁻¹ s⁻¹] | kinact/KI (Bovine trypsin) [M⁻¹ s⁻¹] |
| --- | --- | --- | --- | --- | --- | --- | --- | --- |
| N=C(N)Nc1ccc(C(=O)Oc2ccc(CC(=O)O)n3ncnc23)c(F)c1 [Compound 21, 2-(8-(2-fluoro-4-guanidinobenzoyloxy)-[1,2,4]triazolo[1,5-a]pyridin-5-yl)acetic acid] | 99.4 | 100 | 100 | 97.1 | 99.7 | 100 | – | – |
| N=C(N)Nc1ccc(C(=O)Oc2ccc(CC(=O)O)n3ccnc23)cc1 [Compound 9, 2-(8-(4-guanidinobenzoyloxy)imidazo[1,2-a]pyridin-5-yl)acetic acid] | 101 | 100 | 100 | 96.3 | 101 | 101 | 210000 | 111000 |
| N=C(N)Nc1ncc(C(=O)Oc2ccc(CC(=O)NC(CC(=O)O)C(=O)O)n3ncnc23)cn1 (stereo not shown) [Compound 28, 2-(2-(8-(2-guanidinopyrimidine-5-carbonyloxy)-[1,2,4]triazolo[1,5-a]pyridin-5-yl)acetamido)succinic acid] | 88.6 | 98.5 | 99.9 | 97.8 | 99.9 | 100 | – | – |
| Cc1cc(NC(=N)N)ccc1C(=O)Oc1ccc(CC(=O)O)n2ncnc12 [Compound 19, 2-(8-(4-guanidino-2-methylbenzoyloxy)-[1,2,4]triazolo[1,5-a]pyridin-5-yl)acetic acid] | 10.3 | 59.9 | 101 | 9.5 | 48.9 | 99.7 | – | – |
| N=C(N)Nc1ncc(C(=O)Oc2ccc(CC(=O)O)n3ccnc23)cn1 [Compound 29, 2-(8-(2-guanidinopyrimidine-5-carbonyloxy)imidazo[1,2-a]pyridin-5-yl)acetic acid] | 95.3 | 99.4 | 100 | 95.8 | 99.7 | 100 | – | – |
| N=C(N)Nc1ccc(C(=O)Oc2ccc(CC(=O)N(CC(=O)O)CC(=O)O)n3ncnc23)cc1 [Compound 6, 2,2′-(2-(8-(4-guanidinobenzoyloxy)-[1,2,4]triazolo[1,5-a]pyridin-5-yl)acetamido)diacetic acid] | 20.9 | 72.9 | 101 | 89.6 | 99.9 | 100 | – | – |
| CNC(=N)Nc1ccc(C(=O)Oc2ccc(CC(=O)O)n3ncnc23)cc1 [Compound 34, 2-(8-(4-(3-methylguanidino)benzoyloxy)-[1,2,4]triazolo[1,5-a]pyridin-5-yl)acetic acid] | 15.3 | 80.1 | 97.9 | 9.6 | 57.1 | 97.7 | – | – |
| Cc1cc(C(=O)Oc2ccc(CC(=O)O)n3ncnc23)ccc1NC(=N)N [Compound 15, 2-(8-(4-guanidino-3-methylbenzoyloxy)-[1,2,4]triazolo[1,5-a]pyridin-5-yl)acetic acid] | 1.3 | 6.3 | 36.7 | -0.1 | 8.4 | 35.5 | – | – |
| N=C(N)Nc1ccc(C(=O)Oc2ccc(CC(=O)NC(CCC(=O)O)(CCC(=O)O)CCC(=O)O)n3ncnc23)cc1 [Compound 7, 4-(2-carboxyethyl)-4-(2-(8-(4-guanidinobenzoyloxy)-[1,2,4]triazolo[1,5-a]pyridin-5-yl)acetamido)heptanedioic acid] | 37.8 | 100 | 100 | 94.1 | 100 | 100 | – | – |
| C#CCOCC#Cc1cc(NC(=N)N)ccc1C(=O)Oc1ccc(CC(=O)O)n2ncnc12 [Compound 43, 2-(8-((4-Guanidino-2-(3-(prop-2-yn-1-yloxy)prop-1-yn-1-yl)benzoyl)oxy)-[1,2,4]triazolo[1,5-a]pyridin-5-yl)acetic acid] | 56.5 | 99.9 | 99.9 | 76.1 | 99.5 | 100 | 12300 | 40100 |
| N=C1NCCN1c1ccc(C(=O)Oc2ccc(CC(=O)O)n3ncnc23)cc1 [Compound 32, 2-(8-(4-(2-iminoimidazolidin-1-yl)benzoyloxy)-[1,2,4]triazolo[1,5-a]pyridin-5-yl)acetic acid] | 10.5 | 57.9 | 93.2 | 10.9 | 58.3 | 93 | – | – |
